Test results published in patent US10759793B2, “2-(pyrazolopyridin-3-yl)pyrimidine derivatives as JAK inhibitors” (ALMIRALL, S.A., priority 2015, dated 2020).

Assays:
Assay type in all cases: biochemical
JAK3 = JAK3 (Homo sapiens (Human), UniProt P52333); assay: In vitro JAK kinase assay (TR-FRET), JAK3; settings: catalytic domain aa 795-1124, GST-fusion; ATP 0.6 μM; peptide 140 nM; 30 minutes at room temperature
Protocol: (§1) Compounds were screened for their ability to inhibit JAK1, JAK2 and JAK3 using the assays as indicated below. […] The enzymatic activity was assayed using as substrate a biotinylated peptide, poly (GT)-Biotin (CisBio). […] The degree of phosphorylation was detected by TR-FRET (time-resolved fluorescence energy transfer). […] The enzymatic reactions took place for 30 minutes at room temperature. […] Incubate for 3 h and read on Victor 2V spectrofluorometer (Perkin Elmer) set to read fluorescence resonance energy transfer.

JAK1 = JAK1 (Homo sapiens (Human), UniProt P23458); assay: In vitro JAK kinase assay (TR-FRET), JAK1; settings: catalytic domain aa 850-1154, GST-fusion; ATP 3 μM; peptide 60 nM; 30 minutes at room temperature
Chain of JAK1 (P23458 850-1154): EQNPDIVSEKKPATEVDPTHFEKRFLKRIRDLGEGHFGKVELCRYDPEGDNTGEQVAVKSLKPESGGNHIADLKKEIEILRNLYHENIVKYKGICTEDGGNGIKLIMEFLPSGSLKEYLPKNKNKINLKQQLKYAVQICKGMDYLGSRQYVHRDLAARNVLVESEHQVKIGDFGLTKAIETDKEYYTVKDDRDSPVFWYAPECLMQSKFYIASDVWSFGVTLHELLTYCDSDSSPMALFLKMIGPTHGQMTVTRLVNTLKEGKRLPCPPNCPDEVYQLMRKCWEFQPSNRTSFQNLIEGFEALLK
Protocol: as §1

JAK2 = JAK2 (Homo sapiens (Human), UniProt O60674); assay: In vitro JAK kinase assay (TR-FRET), JAK2; settings: catalytic domain aa 826-1132, GST-fusion; ATP 0.2 μM; peptide 20 nM; 30 minutes at room temperature
Chain of JAK2 (O60674 826-1132): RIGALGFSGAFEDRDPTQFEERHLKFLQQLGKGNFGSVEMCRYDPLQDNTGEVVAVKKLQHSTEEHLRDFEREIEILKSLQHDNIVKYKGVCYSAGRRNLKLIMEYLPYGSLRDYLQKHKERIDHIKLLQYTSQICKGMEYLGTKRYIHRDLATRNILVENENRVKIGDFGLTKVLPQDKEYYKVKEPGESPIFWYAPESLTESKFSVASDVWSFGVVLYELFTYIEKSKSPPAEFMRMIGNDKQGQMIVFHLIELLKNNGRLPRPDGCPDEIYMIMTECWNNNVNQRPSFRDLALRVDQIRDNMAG
Protocol: as §1

Chain of JAK3 (P52333 795-1124): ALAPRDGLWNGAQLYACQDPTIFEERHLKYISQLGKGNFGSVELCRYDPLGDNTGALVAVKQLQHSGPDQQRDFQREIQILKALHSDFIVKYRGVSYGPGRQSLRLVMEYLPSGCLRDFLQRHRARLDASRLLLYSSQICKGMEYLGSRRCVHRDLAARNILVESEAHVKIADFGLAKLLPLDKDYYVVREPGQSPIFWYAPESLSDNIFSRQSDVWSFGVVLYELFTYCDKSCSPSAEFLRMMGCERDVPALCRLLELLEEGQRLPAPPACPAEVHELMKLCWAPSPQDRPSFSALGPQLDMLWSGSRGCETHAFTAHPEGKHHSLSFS

Molecule | IC50 (JAK3) [nM] | IC50 (JAK1) [nM] | IC50 (JAK2) [nM]
O=C(CO)N1CCC[C@@H](Nc2nc(-c3cnn4ccccc34)nc(N3CCC(CO)CC3)c2F)C1 [Example 23, 2-[(3R)-3-({5-Fluoro-6-[4-(hydroxymethyl)piperidin-1-yl]-2-pyrazolo[1,5-a]pyridin-3-ylpyrimidin-4-yl}amino)piperidin-1-yl]-2-oxoethanol] | 5 | 8 | 1
Cc1ccn2ncc(-c3nc(N[C@@H]4CCCN(C(=O)CO)C4)c(F)c(N4CCOCC4)n3)c2c1 [Example 29, 2-((3R)-3-{[5-Fluoro-2-(5-methylpyrazolo[1,5-a]pyridin-3-yl)-6-morpholin-4-ylpyrimidin-4-yl]amino}piperidin-1-yl)-2-oxoethanol] | 10 | 27 | 4
C[C@H](CO)Oc1nc(-c2cnn3ccccc23)nc(N[C@@H]2CCCN(C(=O)CO)C2)c1F [Example 61, (2R)-2-[(5-Fluoro-6-{[(3R)-1-glycoloylpiperidin-3-yl]amino}-2-pyrazolo[1,5-a]pyridin-3-ylpyrimidin-4-yl)oxy]propan-1-ol] | 8 | 58 | 10
O=C(CO)N1CCC[C@@H](Nc2nc(-c3cnn4ccccc34)nc(-c3cccnc3)c2F)C1 [Example 62, 2-{(3R)-3-[(5-Fluoro-2-pyrazolo[1,5-a]pyridin-3-yl-6-pyridin-3-ylpyrimidin-4-yl)amino]piperidin-1-yl}-2-oxoethanol] | 7 | 4 | 1
CN1CCN(c2nc(-c3cnn4ccccc34)nc(O[C@@H]3CCCN(C(=O)CO)C3)c2F)CC1 [Example 67, 2-((3R)-3-{[5-Fluoro-6-(4-methylpiperazin-1-yl)-2-pyrazolo[1,5-a]pyridin-3-ylpyrimidin-4-yl]oxy}piperidin-1-yl)-2-oxoethanol] | 23 | 139 | 5
O=C(CO)N1CCC[C@@H](Nc2nc(-c3cnn4ccccc34)nc(OCC(F)(F)F)c2F)C1 [Example 49, 2-((3R)-3-{[5-Fluoro-2-pyrazolo[1,5-a]pyridin-3-yl-6-(2,2,2-trifluoroethoxy)pyrimidin-4-yl]amino}piperidin-1-yl)-2-oxoethanol] | 14 | 35 | 10
O=C(CO)N1CCC[C@@H](Nc2nc(-c3cnn4ccccc34)nc(-c3ccncc3)c2F)C1 [Example 80, 2-{(3R)-3-[(5-Fluoro-2-pyrazolo[1,5-a]pyridin-3-yl-6-pyridin-4-ylpyrimidin-4-yl)amino]piperidin-1-yl}-2-oxoethanol] | 4 | 2 | 1
Cc1cc(-c2nc(-c3cnn4ccccc34)nc(N(C)[C@@H]3CCCN(C(=O)CO)C3)c2F)ccn1 [Example 77, 2-{(3R)-3-[[5-Fluoro-6-(2-methylpyridin-4-yl)-2-pyrazolo[1,5-a]pyridin-3-ylpyrimidin-4-yl](methyl)amino]piperidin-1-yl}-2-oxoethanol] | 23 | 3 | 2
O=C(CO)N1CCC[C@@H](Nc2nc(-c3cnn4ccccc34)nc(N3CCC(O)CC3)c2F)C1 [Example 22, 1-(5-Fluoro-6-{[(3R)-1-glycoloylpiperidin-3-yl]amino}-2-pyrazolo[1,5-a]pyridin-3-ylpyrimidin-4-yl)piperidin-4-ol] | 4 | 7 | 0.7
Cc1cc(-c2nc(-c3cnn4ccccc34)nc(O[C@@H]3CCCN(C(=O)CC#N)C3)c2F)ccn1 [Example 72, 3-((3R)-3-{[5-Fluoro-6-(2-methylpyridin-4-yl)-2-pyrazolo[1,5-a]pyridin-3-ylpyrimidin-4-yl]oxy}piperidin-1-yl)-3-oxopropanenitrile] | 6 | 6 | 1
COc1nc(-c2cnn3ccccc23)nc(O[C@@H]2CCCN(C(=O)CO)C2)c1F [Example 63, 2-{(3R)-3-[(5-Fluoro-6-methoxy-2-pyrazolo[1,5-a]pyridin-3-ylpyrimidin-4-yl)oxy]piperidin-1-yl}-2-oxoethanol] | 9 | 127 | 3
[Trans-4-({6-[2-(dimethylamino)ethoxy]-5-fluoro-2-pyrazolo[1,5-a]pyridin-3-ylpyrimidin-4-yl}amino)cyclohexyl]acetonitrile [Example 10] | 0.7 | 32 | 0.5
CCOC(=O)c1nc(-c2cnn3ccccc23)nc(N[C@@H]2CCCN(C(=O)CO)C2)c1F [Example 46, Ethyl 5-fluoro-6-{[(3R)-1-glycoloylpiperidin-3-yl]amino}-2-pyrazolo[1,5-a]pyridin-3-ylpyrimidine-4-carboxylate] | 4 | 10 | 3
CCOC(=O)c1ccc(-c2nc(-c3cnn4ccccc34)nc(N[C@@H]3CCCN(C(=O)CO)C3)c2F)cn1 [Example 38, Ethyl 5-(5-fluoro-6-{[(3R)-1-glycoloylpiperidin-3-yl]amino}-2-pyrazolo[1,5-a]pyridin-3-ylpyrimidin-4-yl)pyridine-2-carboxylate] | 6 | 4 | 2
3-((3R)-3-{[5-Fluoro-6-(4-hydroxypiperidin-1-yl)-2-pyrazolo[1,5-a]pyridin-3-ylpyrimidin-4-yl]oxy}piperidin-1-yl)-3-oxopropanenitrile [Example 76] | 5 | 9 | 1

More lines, in order of falling IC50 (JAK3), values ahead:

IC50 (JAK3) [nM] | IC50 (JAK1) [nM] | IC50 (JAK2) [nM] | Molecule
3 | 5 | 0.8 | CCOC(=O)C1(C)CCN(c2nc(-c3cnn4ccccc34)nc(N[C@@H]3CCCN(C(=O)CO)C3)c2F)CC1 [Example 28, Ethyl 1-(5-fluoro-6-{[(3R)-1-glycoloylpiperidin-3-yl]amino}-2-pyrazolo[1,5-a]pyridin-3-ylpyrimidin-4-yl)-4-methylpiperidine-4-carboxylate]
3 | 10 | 1 | Cc1cc(-c2nc(-c3cnn4ccccc34)nc(N[C@@H]3CCCN(C(=O)CC#N)C3)c2F)cc(C)n1 [Example 87, 3-((3R)-3-{[6-(2,6-Dimethylpyridin-4-yl)-5-fluoro-2-pyrazolo[1,5-a]pyridin-3-ylpyrimidin-4-yl]amino}piperidin-1-yl)-3-oxopropanenitrile]
3 | 85 | 0.7 | CN(C)CCOc1nc(-c2cnn3ccccc23)nc(N[C@H]2CC[C@H](CC#N)CC2)c1F [Example 9, [trans-4-({6-[2-(dimethylamino)ethoxy]-5-fluoro-2-pyrazolo[1,5-a]pyridin-3-ylpyrimidin-4-yl}amino)cyclohexyl]acetonitrile]
3 | 36 | 2 | CC(C)Oc1nc(-c2cnn3ccccc23)nc(N[C@@H]2CCCN(C(=O)CO)C2)c1F [Example 51, 2-{(3R)-3-[(5-Fluoro-6-isopropoxy-2-pyrazolo[1,5-a]pyridin-3-ylpyrimidin-4-yl)amino]piperidin-1-yl}-2-oxoethanol]
3 | 12 | 0.5 | N#CC[C@H]1CC[C@H](Nc2nc(-c3cnn4ccccc34)nc(N3CCC(O)CC3)c2F)CC1 [Example 1, (Trans-4-{[5-fluoro-6-(4-hydroxypiperidin-1-yl)-2-pyrazolo[1,5-a]pyridin-3-ylpyrimidin-4-yl]amino}cyclohexyl)acetonitrile]
2 | 3 | 1 | CN(C)c1ccc(-c2nc(-c3cnn4ccccc34)nc(N[C@@H]3CCCN(C(=O)CO)C3)c2F)cn1 [Example 81, 2-[(3R)-3-({6-[6-(Dimethylamino)pyridin-3-yl]-5-fluoro-2-pyrazolo[1,5-a]pyridin-3-ylpyrimidin-4-yl}amino)piperidin-1-yl]-2-oxoethanol]
2 | 4 | 0.6 | CCOC(=O)C1CCN(c2nc(-c3cnn4ccccc34)nc(N[C@@H]3CCCN(C(=O)CC#N)C3)c2F)CC1 [Example 30, Ethyl 1-(6-{[(3R)-1-(cyanoacetyl)piperidin-3-yl]amino}-5-fluoro-2-pyrazolo[1,5-a]pyridin-3-ylpyrimidin-4-yl)piperidine-4-carboxylate]
1 | 2 | 0.6 | N#CCC(=O)N1CCC[C@@H](Nc2nc(-c3cnn4ccccc34)nc(-c3ccc(CO)cc3)c2F)C1 [Example 17, 3-[(3R)-3-({5-Fluoro-6-[4-(hydroxymethyl)phenyl]-2-pyrazolo[1,5-a]pyridin-3-ylpyrimidin-4-yl}amino)piperidin-1-yl]-3-oxopropanenitrile]
1 | 2 | 0.5 | N#CCC(=O)N1CCC[C@@H](Nc2nc(-c3cnn4ccccc34)nc(-c3ccnc(CO)c3)c2F)C1 [Example 78, 3-[(3R)-3-({5-Fluoro-6-[2-(hydroxymethyl)pyridin-4-yl]-2-pyrazolo[1,5-a]pyridin-3-ylpyrimidin-4-yl}amino)piperidin-1-yl]-3-oxopropanenitrile]
1 | 2 | 1 | Cc1cc(-c2cc(N[C@@H]3CCCN(C(=O)CO)C3)nc(-c3cnn4ccccc34)n2)cc(C)n1 [Example 101, 2-((3R)-3-{[6-(2,6-Dimethylpyridin-4-yl)-2-pyrazolo[1,5-a]pyridin-3-ylpyrimidin-4-yl]amino}piperidin-1-yl)-2-oxoethanol]
